ChEMBL document CHEMBL1149427 (Bioorg Med Chem Lett, 2006)

Columns and labels:
[1] = biological target: Histamine H1 receptor (Cavia porcellus) (UniProt P31389); assay: Functional activity at the histamine H1 receptor in guinea pig ileum; assay type: tissue-based
[2] = biological target: Histamine H1 receptor (Cavia porcellus) (UniProt P31389); assay: (§1) Agonist activity at histamine H1 receptor in guinea pig ileum; assay type: functional, tissue-based
Histamine H1 receptor = Histamine H1 receptor (Cavia porcellus, UniProt P31389); assay: as §1; assay type: functional, tissue-based
Histamine H1 receptor, sequence (P31389 whole entry): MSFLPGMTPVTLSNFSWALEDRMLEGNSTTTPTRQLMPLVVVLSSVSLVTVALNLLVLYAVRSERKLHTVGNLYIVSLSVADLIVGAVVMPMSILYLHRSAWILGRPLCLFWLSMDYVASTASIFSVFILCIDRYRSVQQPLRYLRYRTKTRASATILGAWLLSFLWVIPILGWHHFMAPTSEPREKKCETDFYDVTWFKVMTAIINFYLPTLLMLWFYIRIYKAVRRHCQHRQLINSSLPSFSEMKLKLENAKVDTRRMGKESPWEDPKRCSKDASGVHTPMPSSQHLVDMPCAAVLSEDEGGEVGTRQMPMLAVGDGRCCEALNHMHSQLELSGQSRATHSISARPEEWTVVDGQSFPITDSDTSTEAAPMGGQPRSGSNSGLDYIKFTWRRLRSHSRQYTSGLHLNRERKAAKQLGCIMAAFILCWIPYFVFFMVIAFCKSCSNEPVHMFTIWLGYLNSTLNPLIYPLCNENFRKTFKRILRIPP

[3] = biological target: Histamine H1 receptor (Cavia porcellus) (UniProt P31389); assay: Agonist activity at histamine H1 receptor in guinea pig ileum in presence of mepyramine; assay type: functional, tissue-based

Histamine H1 receptor (Cavia porcellus), sequence (P31389 whole entry): as above

pD'2 [1] | Emax [2] [%] | Activity [2] [%] | EC50 (Histamine H1 receptor) [nM] | Emax [3] [%] | Structure (SMILES)
 | 75 | 12 | 1660 | 47 | NCCc1c[nH]c(C(=O)CC(c2ccccc2)c2ccccc2)n1
3.8 | 0 |  |  |  | COC(=O)C(N)C(O)c1c[nH]c(C(=O)CC(c2ccccc2)c2ccccc2)n1 (racemic)

Second part, the compound before the results:

Structure (SMILES) | pD'2 [1] | Emax [2] [%] | Activity [2] [%] | EC50 (Histamine H1 receptor) [nM] | Emax [3] [%]
N[C@H](CO)[C@H](O)c1c[nH]c(C(=O)CC(c2ccccc2)c2ccccc2)n1 | 4.08 | 0 |  |  | 
COCCOCn1cc(CCN)nc1C(=O)CC(c1ccccc1)c1ccccc1 | 5.05 | 0 |  |  | 
COC(=O)[C@@H](N)[C@H](O)c1c[nH]c(C(=O)CC(c2ccccc2)c2ccccc2)n1 | 4.61 | 0 |  |  | 
NCCc1c[nH]cn1 |  |  | 100 |  | 
